From ChEMBL document CHEMBL3352641, “Discovery of pyrrolo[1,2-b]pyridazine-3-carboxamides as Janus kinase (JAK) inhibitors” (Bioorg Med Chem Lett, 2014)
One block for each molecule: values may come before it.

How the values were obtained:
[1] = biological target: T1, Tyrosine-protein kinase JAK3 (Homo sapiens, UniProt P52333); assay: Inhibition of JAK3 (unknown origin) by filter assay
T1 sequence (P52333 whole entry): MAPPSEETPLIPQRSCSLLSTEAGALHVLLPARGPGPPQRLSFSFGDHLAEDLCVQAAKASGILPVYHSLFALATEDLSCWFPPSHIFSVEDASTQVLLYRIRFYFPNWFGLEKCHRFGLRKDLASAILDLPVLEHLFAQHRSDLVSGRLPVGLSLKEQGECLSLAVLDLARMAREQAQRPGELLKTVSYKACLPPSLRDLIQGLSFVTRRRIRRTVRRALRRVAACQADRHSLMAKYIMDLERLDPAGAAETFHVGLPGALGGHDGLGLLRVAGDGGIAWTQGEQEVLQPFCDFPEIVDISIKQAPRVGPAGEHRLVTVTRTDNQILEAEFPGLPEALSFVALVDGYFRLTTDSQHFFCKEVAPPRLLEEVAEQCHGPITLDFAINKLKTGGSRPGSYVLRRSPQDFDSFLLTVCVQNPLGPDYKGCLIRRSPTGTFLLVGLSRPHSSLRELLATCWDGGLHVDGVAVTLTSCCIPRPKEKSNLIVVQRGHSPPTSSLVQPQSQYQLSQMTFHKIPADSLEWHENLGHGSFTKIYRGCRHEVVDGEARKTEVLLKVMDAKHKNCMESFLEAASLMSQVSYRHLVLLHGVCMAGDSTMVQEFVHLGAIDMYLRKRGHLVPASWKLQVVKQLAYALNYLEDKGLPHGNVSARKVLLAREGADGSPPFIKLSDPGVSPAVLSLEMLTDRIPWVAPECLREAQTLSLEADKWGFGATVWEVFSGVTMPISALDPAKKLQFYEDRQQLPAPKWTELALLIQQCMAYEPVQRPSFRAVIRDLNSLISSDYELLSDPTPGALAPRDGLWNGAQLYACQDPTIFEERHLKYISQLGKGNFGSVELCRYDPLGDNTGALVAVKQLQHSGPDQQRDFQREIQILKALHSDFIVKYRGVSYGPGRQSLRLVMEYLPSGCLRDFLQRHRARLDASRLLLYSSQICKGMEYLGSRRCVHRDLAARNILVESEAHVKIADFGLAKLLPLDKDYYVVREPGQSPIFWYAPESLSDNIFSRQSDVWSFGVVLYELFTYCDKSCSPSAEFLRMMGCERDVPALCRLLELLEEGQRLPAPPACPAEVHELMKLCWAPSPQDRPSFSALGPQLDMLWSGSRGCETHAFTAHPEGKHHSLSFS

[2] = biological target: Tyrosine-protein kinase JAK1 (Homo sapiens, UniProt P23458); assay: Inhibition of JAK1 (unknown origin) bycaliper assay
[3] = biological target: Non-receptor tyrosine-protein kinase TYK2 (Homo sapiens, UniProt P29597); assay: Inhibition of TYK2 (unknown origin) by caliper assay
[4] = biological target: Tyrosine-protein kinase JAK2 (Homo sapiens, UniProt O60674); assay: Inhibition of JAK2 (unknown origin) by caliper assay
Blood = assay: Inhibition of IL2-induced IFN-gamma production in human whole blood incubated for 18 hrs by ELISA method; type: functional, tissue-based
[5] = Protein binding in human serum; type: ADME, cell-free; settings: read-out: PB (converted)
[6] = Permeability by PAMPA method; type: ADME; settings: read-out: permeability
[7] = Permeability in human Caco2 cells; type: ADME, cell-based; settings: Caco-2, read-out: permeability
[8] = (§1) Fraction unbound in human serum; type: ADME, cell-free
Serum = assay: as §1; type: ADME, cell-free
Cytochrome P450 1A2 = biological target: T2, Cytochrome P450 1A2 (Homo sapiens, UniProt P05177); assay: Inhibition of CYP1A2 (unknown origin); type: ADME
T2 sequence (P05177 whole entry): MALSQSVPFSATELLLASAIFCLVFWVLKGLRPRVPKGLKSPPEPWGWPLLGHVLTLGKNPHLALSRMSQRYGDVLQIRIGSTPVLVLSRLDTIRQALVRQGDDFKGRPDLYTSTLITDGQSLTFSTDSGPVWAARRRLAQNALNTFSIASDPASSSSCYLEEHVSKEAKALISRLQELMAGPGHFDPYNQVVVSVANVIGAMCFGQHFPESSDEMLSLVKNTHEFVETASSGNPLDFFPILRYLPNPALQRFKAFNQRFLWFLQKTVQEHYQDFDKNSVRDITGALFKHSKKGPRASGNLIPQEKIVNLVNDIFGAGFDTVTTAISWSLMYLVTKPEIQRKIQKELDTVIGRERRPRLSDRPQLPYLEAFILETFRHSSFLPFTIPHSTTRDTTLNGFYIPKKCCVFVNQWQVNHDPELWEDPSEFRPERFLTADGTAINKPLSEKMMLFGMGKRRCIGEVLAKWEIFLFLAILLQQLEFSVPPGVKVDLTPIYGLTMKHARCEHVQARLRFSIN

[9] = Inhibition of […] (unknown origin); type: ADME, Homo sapiens
Cytochrome P450 2C8 = biological target: T3, Cytochrome P450 2C8 (Homo sapiens, UniProt P10632); assay: Inhibition of CYP2C8 (unknown origin); type: ADME
T3 sequence (P10632 whole entry): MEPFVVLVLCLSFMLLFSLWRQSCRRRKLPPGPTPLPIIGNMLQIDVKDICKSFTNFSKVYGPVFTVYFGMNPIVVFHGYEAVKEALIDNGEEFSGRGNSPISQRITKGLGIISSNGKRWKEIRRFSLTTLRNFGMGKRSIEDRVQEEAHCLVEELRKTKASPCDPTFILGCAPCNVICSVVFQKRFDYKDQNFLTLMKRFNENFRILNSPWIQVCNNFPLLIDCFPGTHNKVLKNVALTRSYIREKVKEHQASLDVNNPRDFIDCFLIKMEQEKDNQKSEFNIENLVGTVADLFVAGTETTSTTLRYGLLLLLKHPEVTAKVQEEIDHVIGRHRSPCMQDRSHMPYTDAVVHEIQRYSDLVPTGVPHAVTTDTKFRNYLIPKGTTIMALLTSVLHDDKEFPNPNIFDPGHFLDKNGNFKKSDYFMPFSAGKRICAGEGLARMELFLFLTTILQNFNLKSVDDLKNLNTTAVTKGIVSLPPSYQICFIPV

Cytochrome P450 2C9 = Cytochrome P450 2C9 (Homo sapiens, UniProt P11712); assay: Inhibition of CYP2C9 (unknown origin); type: ADME
Cytochrome P450 2D6 = Cytochrome P450 2D6 (Homo sapiens, UniProt P10635); assay: Inhibition of CYP2D6 (unknown origin); type: ADME
Cytochrome P450 3A4 = Cytochrome P450 3A4 (Homo sapiens, UniProt P08684); assay: Inhibition of CYP3A4 (unknown origin); type: ADME
[10] = Half life mouse liver microsomes; type: ADME
[11] = Half life human liver microsomes; type: ADME
[12] = AUC in balb/c mouse at 2 mg/kg, iv; type: ADME, organism-based; set-up: dose 2 mg/kg, route intravenous; settings: plasma
[13] = Half life in balb/c mouse at 2 mg/kg, iv; type: ADME, organism-based; set-up: dose 2 mg/kg, route intravenous; settings: in vivo
[14] = Clearance in balb/c mouse at 2 mg/kg, iv; type: ADME, organism-based; set-up: dose 2 mg/kg, route intravenous; settings: in vivo
[15] = Volume of distribution at steady state in balb/c mouse at 2 mg/kg, iv; type: ADME, organism-based; set-up: dose 2 mg/kg, route intravenous; settings: in vivo, read-out: Vdss
[16] = Cmax in balb/c mouse at 2 mg/kg, po; type: ADME, organism-based; set-up: dose 2 mg/kg, route oral; settings: in vivo
[17] = Tmax in balb/c mouse at 2 mg/kg, po; type: ADME, organism-based; set-up: dose 2 mg/kg, route oral; settings: in vivo
[18] = AUC in balb/c mouse at 2 mg/kg, po; type: ADME, organism-based; set-up: dose 2 mg/kg, route oral; settings: plasma
[19] = Half life in balb/c mouse at 2 mg/kg, po; type: ADME, organism-based; set-up: dose 2 mg/kg, route oral; settings: in vivo
[20] = Oral bioavailability in balb/c mouse at 2 mg/kg; type: ADME, organism-based; settings: in vivo
[21] = Cmax in balb/c mouse at 10 mg/kg, po; type: ADME, organism-based; set-up: dose 10 mg/kg, route oral; settings: in vivo
[22] = Tmax in balb/c mouse at 10 mg/kg, po; type: ADME, organism-based; set-up: dose 10 mg/kg, route oral; settings: in vivo
[23] = AUC in balb/c mouse at 10 mg/kg, po; type: ADME, organism-based; set-up: dose 10 mg/kg, route oral; settings: plasma
[24] = Half life in balb/c mouse at 10 mg/kg, po; type: ADME, organism-based; set-up: dose 10 mg/kg, route oral; settings: in vivo
[25] = Oral bioavailability in balb/c mouse at 10 mg/kg; type: ADME, organism-based; settings: in vivo
[26] = Cmax in balb/c mouse at 50 mg/kg, po; type: ADME, organism-based; set-up: dose 50 mg/kg, route oral; settings: in vivo
[27] = Tmax in balb/c mouse at 50 mg/kg, po; type: ADME, organism-based; set-up: dose 50 mg/kg, route oral; settings: in vivo
[28] = AUC in balb/c mouse at 50 mg/kg, po; type: ADME, organism-based; set-up: dose 50 mg/kg, route oral; settings: plasma
[29] = Half life in balb/c mouse at 50 mg/kg, po; type: ADME, organism-based; set-up: dose 50 mg/kg, route oral; settings: in vivo
[30] = Oral bioavailability in balb/c mouse at 50 mg/kg; type: ADME, organism-based; settings: in vivo

Chain of Tyrosine-protein kinase JAK1 (P23458 whole entry): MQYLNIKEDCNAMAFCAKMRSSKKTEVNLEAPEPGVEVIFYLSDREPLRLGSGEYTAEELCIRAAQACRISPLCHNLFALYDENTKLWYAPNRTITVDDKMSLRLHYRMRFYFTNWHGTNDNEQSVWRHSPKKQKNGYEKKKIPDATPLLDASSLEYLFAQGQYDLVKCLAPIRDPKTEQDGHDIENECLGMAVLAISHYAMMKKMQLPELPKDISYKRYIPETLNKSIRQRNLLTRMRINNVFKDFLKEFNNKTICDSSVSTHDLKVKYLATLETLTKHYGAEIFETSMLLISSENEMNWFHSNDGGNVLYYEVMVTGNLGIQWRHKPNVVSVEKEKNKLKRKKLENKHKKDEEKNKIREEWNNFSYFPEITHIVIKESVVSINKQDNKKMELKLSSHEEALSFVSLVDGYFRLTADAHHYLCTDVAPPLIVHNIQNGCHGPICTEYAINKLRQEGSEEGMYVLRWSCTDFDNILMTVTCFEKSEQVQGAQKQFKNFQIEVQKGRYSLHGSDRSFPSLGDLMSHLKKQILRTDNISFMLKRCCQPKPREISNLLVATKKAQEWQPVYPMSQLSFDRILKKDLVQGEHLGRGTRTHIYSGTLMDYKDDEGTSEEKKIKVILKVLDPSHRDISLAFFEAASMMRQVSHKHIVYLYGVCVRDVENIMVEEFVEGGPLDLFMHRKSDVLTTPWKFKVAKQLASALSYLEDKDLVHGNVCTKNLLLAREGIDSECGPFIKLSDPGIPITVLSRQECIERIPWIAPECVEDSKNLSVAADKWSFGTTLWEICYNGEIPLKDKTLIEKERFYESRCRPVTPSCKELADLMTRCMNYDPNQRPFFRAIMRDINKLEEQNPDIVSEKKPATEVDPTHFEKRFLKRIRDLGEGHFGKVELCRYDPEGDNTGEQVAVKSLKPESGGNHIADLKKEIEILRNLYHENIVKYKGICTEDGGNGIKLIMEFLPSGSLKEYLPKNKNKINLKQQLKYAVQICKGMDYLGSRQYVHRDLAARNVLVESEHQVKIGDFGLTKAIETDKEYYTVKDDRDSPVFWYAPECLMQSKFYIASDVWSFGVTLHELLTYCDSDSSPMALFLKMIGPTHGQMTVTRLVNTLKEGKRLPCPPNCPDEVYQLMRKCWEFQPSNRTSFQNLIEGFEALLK
Chain of Non-receptor tyrosine-protein kinase TYK2 (P29597 whole entry): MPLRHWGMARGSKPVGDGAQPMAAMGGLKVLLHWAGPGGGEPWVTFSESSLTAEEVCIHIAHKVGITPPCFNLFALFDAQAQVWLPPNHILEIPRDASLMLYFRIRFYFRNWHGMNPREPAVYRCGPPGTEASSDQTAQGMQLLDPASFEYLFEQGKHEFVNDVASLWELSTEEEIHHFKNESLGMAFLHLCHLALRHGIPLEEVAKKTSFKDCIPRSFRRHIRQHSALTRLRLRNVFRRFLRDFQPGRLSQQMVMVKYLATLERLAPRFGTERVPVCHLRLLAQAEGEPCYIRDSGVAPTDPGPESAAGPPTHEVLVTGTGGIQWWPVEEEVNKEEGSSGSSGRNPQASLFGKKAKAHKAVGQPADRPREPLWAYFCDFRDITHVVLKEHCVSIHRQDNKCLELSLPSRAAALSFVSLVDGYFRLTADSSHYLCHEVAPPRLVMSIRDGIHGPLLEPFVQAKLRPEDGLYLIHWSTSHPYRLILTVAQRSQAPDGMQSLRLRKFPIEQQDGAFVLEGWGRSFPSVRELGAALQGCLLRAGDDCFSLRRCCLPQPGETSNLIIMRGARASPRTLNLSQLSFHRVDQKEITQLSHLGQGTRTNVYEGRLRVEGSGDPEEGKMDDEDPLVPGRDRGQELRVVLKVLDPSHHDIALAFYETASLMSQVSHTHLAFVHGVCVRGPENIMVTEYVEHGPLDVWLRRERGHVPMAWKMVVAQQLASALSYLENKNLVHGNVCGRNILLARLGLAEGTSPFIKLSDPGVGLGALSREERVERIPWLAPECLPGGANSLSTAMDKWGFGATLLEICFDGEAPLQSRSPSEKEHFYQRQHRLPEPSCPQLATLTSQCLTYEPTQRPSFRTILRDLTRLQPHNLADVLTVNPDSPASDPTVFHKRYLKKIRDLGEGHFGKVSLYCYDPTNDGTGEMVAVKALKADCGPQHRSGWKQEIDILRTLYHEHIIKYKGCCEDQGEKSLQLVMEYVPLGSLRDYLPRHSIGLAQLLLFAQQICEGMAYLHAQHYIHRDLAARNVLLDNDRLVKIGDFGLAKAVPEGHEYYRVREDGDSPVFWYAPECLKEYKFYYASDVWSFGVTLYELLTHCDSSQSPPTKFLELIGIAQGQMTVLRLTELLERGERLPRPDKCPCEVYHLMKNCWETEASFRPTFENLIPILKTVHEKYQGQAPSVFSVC
Chain of Tyrosine-protein kinase JAK2 (O60674 whole entry): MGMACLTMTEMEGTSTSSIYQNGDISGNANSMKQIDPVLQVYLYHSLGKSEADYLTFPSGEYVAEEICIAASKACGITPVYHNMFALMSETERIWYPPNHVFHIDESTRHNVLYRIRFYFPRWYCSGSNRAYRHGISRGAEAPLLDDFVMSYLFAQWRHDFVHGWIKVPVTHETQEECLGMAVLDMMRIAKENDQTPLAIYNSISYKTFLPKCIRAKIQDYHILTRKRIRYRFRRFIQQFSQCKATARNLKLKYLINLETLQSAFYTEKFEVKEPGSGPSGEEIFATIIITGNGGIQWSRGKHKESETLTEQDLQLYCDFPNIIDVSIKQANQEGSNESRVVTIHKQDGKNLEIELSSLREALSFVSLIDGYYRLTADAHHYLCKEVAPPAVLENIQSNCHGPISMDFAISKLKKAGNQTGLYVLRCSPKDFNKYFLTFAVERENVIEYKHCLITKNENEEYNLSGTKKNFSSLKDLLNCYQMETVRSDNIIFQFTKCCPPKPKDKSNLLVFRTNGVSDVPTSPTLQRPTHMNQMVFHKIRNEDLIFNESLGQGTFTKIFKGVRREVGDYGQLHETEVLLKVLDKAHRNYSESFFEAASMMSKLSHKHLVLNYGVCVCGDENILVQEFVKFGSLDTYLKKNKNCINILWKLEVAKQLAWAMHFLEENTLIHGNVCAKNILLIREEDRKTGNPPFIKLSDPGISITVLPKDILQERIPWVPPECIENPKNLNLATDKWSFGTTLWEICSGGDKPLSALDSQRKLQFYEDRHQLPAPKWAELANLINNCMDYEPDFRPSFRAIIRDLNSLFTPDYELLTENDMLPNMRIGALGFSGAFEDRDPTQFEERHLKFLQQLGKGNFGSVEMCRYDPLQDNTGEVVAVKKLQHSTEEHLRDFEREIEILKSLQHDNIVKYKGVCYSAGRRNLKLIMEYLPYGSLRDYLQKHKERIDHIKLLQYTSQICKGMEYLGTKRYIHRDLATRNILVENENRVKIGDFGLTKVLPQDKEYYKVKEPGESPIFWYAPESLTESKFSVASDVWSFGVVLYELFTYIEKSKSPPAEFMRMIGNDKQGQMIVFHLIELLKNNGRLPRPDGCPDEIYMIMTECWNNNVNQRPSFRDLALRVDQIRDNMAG
Chain of Cytochrome P450 3A4 (P08684 whole entry): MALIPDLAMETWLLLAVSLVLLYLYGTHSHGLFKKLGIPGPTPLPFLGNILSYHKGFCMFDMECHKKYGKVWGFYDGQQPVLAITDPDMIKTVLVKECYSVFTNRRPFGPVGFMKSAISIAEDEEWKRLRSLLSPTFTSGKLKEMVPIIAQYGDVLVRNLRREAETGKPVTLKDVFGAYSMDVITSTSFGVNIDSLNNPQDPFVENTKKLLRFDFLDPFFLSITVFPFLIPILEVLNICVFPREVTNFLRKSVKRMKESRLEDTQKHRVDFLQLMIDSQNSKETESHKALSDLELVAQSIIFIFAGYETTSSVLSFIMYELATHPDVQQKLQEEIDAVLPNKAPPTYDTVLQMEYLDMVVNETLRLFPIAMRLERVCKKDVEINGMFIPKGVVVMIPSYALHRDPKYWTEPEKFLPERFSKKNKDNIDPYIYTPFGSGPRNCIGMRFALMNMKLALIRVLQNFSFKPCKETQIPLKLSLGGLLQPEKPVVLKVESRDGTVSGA
Chain of Cytochrome P450 2D6 (P10635 whole entry): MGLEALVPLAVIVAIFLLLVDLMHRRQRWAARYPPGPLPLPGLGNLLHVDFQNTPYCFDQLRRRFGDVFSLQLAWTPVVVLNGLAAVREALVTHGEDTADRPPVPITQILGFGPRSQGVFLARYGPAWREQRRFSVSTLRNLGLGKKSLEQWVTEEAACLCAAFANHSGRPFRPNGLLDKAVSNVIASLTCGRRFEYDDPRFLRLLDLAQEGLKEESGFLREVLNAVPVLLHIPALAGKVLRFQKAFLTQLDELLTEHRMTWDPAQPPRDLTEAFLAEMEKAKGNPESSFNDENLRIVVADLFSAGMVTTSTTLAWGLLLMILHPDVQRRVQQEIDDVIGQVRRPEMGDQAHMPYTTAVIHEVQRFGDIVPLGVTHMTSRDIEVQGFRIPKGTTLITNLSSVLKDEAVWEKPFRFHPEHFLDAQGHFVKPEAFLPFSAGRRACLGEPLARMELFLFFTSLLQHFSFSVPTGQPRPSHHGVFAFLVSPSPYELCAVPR
Chain of Cytochrome P450 2C9 (P11712 whole entry): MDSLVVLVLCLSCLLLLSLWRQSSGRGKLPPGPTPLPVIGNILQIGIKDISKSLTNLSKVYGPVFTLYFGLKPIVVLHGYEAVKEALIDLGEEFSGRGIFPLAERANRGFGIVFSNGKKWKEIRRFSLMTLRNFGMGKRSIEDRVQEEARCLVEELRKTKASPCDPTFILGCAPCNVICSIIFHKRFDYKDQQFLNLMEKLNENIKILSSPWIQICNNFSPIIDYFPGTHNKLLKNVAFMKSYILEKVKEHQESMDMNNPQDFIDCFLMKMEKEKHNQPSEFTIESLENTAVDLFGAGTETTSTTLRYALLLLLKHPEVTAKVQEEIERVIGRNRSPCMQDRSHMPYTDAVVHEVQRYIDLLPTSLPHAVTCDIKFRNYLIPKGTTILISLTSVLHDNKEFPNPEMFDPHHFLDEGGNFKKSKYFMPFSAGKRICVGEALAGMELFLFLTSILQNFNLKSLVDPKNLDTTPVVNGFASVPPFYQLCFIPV

Structure (SMILES): C[C@H](Nc1c(C(N)=O)cnn2cccc12)C(C)(C)C
- IC50 [1]: 110 nM
- IC50 [2]: 270 nM
- IC50 [3]: 680 nM
- IC50 [4]: 570 nM

Structure (SMILES): NC(=O)c1cnn2cccc2c1NC1CCCC1
- IC50 [2]: 170 nM
- IC50 [3]: 150 nM
- IC50 [4]: 250 nM

Structure (SMILES): CC1(C)[C@H](Nc2c(C(N)=O)cnn3cccc23)CC[C@@]1(C)N
- IC50 [1]: 32 nM
- IC50 [2]: 71 nM
- IC50 [3]: 52 nM
- IC50 [4]: 280 nM
- IC50 (Blood): 180 nM
- fraction unbound [8]: 0.52

Structure (SMILES): C[C@@]1(F)CCC[C@@H]1Nc1c(C(N)=O)cnn2cccc12
- IC50 [1]: 47 nM
- IC50 [2]: 190 nM
- IC50 [3]: 400 nM
- IC50 [4]: 130 nM

Structure (SMILES): C[C@@]1(C#N)CCC[C@H]1Nc1c(C(N)=O)cnn2cccc12 (racemic)
- IC50 [1]: 67 nM
- IC50 [2]: 61 nM
- IC50 [3]: 30 nM

Structure (SMILES): CC1(C)[C@@H](O)CC[C@H]1Nc1c(C(N)=O)cnn2cccc12 (racemic)
- IC50 [1]: 16 nM
- IC50 [2]: 62 nM
- IC50 [3]: 79 nM
- IC50 [4]: 130 nM
- IC50 (Blood): 1200 nM

Now those with a lower IC50 [2], led by results:

- IC50 [1]: 8 nM
- IC50 [2]: 48 nM
- IC50 [3]: 16 nM
- IC50 [4]: 30 nM
- IC50 (Blood): 930 nM
- fraction unbound [5]: 0.027
- Papp [6]: 86.2 ×10⁻⁶ cm/s
- Papp [7]: 19.2 ×10⁻⁶ cm/s
Structure (SMILES): C[C@@H](Nc1c(C(N)=O)cnn2cccc12)C(C)(C)C

- IC50 [1]: 5 nM
- IC50 [2]: 24 nM
- IC50 [3]: 8 nM
- IC50 [4]: 16 nM
- IC50 (Blood): 1200 nM
- fraction unbound [8]: 0.019
- fraction unbound [5]: 0.019
Structure (SMILES): CC1(C)CCC[C@H]1Nc1c(C(N)=O)cnn2cccc12

- IC50 [1]: 66 nM
- IC50 [2]: 56 nM
- IC50 [3]: 130 nM
- IC50 [4]: 130 nM
Structure (SMILES): CC1(C)CCC[C@@H]1Nc1c(C(N)=O)cnn2cccc12

- IC50 [1]: 5 nM
- IC50 [2]: 19 nM
- IC50 [3]: 97 nM
- IC50 [4]: 62 nM
- IC50 (Blood): 210 nM
- Fu (Serum): 52%
Structure (SMILES): CC1(C)[C@H](Nc2c(C(N)=O)cnn3cccc23)CC[C@]1(C)N

- IC50 [1]: 1 nM
- IC50 [2]: 9 nM
- IC50 [3]: 2 nM
- IC50 [4]: 18 nM
- IC50 (Blood): 260 nM
- fraction unbound [8]: 0.11
- Papp [6]: 76.6 ×10⁻⁶ cm/s
- Papp [7]: 25.6 ×10⁻⁶ cm/s
- IC50 (Cytochrome P450 1A2): > 20000 nM
- IC50 [9]: > 20000 nM
- IC50 (Cytochrome P450 2C8): > 20000 nM
- IC50 (Cytochrome P450 2C9): > 20000 nM
- IC50 (Cytochrome P450 2D6): > 20000 nM
- IC50 (Cytochrome P450 3A4): > 20000 nM
- half-life [10]: 34 min
- half-life [11]: 20 min
- AUC [12]: 2 µM·h
- half-life [13]: 72 min
- clearance [14]: 60 mL/min/kg
- Vd [15]: 4.8 L/kg
- Cmax [16]: 480 nM
- Tmax [17]: 30 min
- AUC [18]: 0.87 µM·h
- half-life [19]: 84 min
- bioavailability [20]: 45%
- Cmax [21]: 2600 nM
- Tmax [22]: 30 min
- AUC [23]: 5.7 µM·h
- half-life [24]: 96 min
- bioavailability [25]: 59%
- Cmax [26]: 8200 nM
- Tmax [27]: 30 min
- AUC [28]: 21 µM·h
- half-life [29]: 120 min
- bioavailability [30]: 46%
Structure (SMILES): C[C@]1(F)CCC[C@H]1Nc1c(C(N)=O)cnn2cccc12

- IC50 [1]: 6 nM
- IC50 [2]: 21 nM
- IC50 [3]: 22 nM
- IC50 [4]: 42 nM
- IC50 (Blood): 380 nM
- fraction unbound [8]: 0.17
Structure (SMILES): CC1(C)[C@H](O)CC[C@H]1Nc1c(C(N)=O)cnn2cccc12 (racemic)
